Source: ChEMBL document CHEMBL1287803, “Synthesis of 4β-N-polyaromatic substituted podophyllotoxins: DNA topoisomerase inhibition, anticancer and apoptosis-inducing activities” (Bioorg Med Chem, 2010)
The source made the active and inactive calls. The calls are words filed in the database; no cut-off is given here.

Key:
[1] = system: MOLT-4; assay: Cell cycle arrest in human MOLT4 cells assessed as accumulation at sub G1 phase at 5 uM after 24 hrs using propidium iodide staining by flow cytometry; format: functional, cell-based
[2] = system: HCT-15; assay: Anticancer activity against human HCT15 cells assessed as cell viability after 48 hrs by SRB assay; format: functional, cell-based; details: HCT-15, 48 h
[3] = system: HEp-2; assay: Anticancer activity against human Hep2 cells assessed as cell viability after 48 hrs by SRB assay; format: functional, cell-based; details: HEp-2, 48 h
[4] = system: IMR-32; assay: Anticancer activity against human IMR32 cells assessed as cell viability after 48 hrs by SRB assay; format: functional, cell-based; details: IMR-32, 48 h
[5] = system: A549; assay: Anticancer activity against human A549 cells assessed as cell viability after 48 hrs by SRB assay; format: functional, cell-based; details: A549, 48 h
[6] = system: DU-145; assay: Anticancer activity against human DU145 cells assessed as cell viability after 48 hrs by SRB assay; format: functional, cell-based; details: DU-145, 48 h
[7] = system: PC-3; assay: Anticancer activity against human PC3 cells assessed as cell viability after 48 hrs by SRB assay; format: functional, cell-based; details: PC-3, 48 h
[8] = Inhibition of DNA topoisomerase 2 assessed as inhibition of relaxation of supercoiled pBR322 plasmid DNA at 10 to 500 uM by gel electrophoresis
[9] = Inhibition of DNA topoisomerase 2 assessed as inhibition of relaxation of supercoiled pBR322 plasmid DNA at 1 mM by gel electrophoresis
[10] = Anticancer activity against human 502713 cells assessed as cell viability after 48 hrs by SRB assay; format: functional, cell-based; details: Homo sapiens, 502713, 48 h
[11] = Inhibition of DNA topoisomerase 2 assessed as inhibition of relaxation of supercoiled pBR322 plasmid DNA at 10 uM by gel electrophoresis
[12] = system: MOLT-4; assay: Induction of apoptosis in human MOLT4 cells assessed as DNA fragmentation at 0.5 uM after 24 hrs by agarose gel electrophoresis; format: functional, cell-based
[13] = system: MOLT-4; assay: Induction of apoptosis in human MOLT4 cells assessed as DNA fragmentation at 1 uM after 24 hrs by agarose gel electrophoresis; format: functional, cell-based
[14] = system: MOLT-4; assay: Induction of apoptosis in human MOLT4 cells assessed as DNA fragmentation at 5 uM after 24 hrs by agarose gel electrophoresis; format: functional, cell-based
[15] = system: MOLT-4; assay: Induction of apoptosis in human MOLT4 cells assessed as DNA fragmentation at 10 uM after 24 hrs by agarose gel electrophoresis; format: functional, cell-based
[16] = system: MOLT-4; assay: Cell cycle arrest in human MOLT4 cells assessed as accumulation at sub G1 phase at 0.5 uM after 24 hrs using propidium iodide staining by flow cytometry; format: functional, cell-based
[17] = system: MOLT-4; assay: Cell cycle arrest in human MOLT4 cells assessed as accumulation at sub G1 phase at 1 uM after 24 hrs using propidium iodide staining by flow cytometry; format: functional, cell-based
[18] = system: MOLT-4; assay: Cell cycle arrest in human MOLT4 cells assessed as accumulation at sub G1 phase at 10 uM after 24 hrs using propidium iodide staining by flow cytometry; format: functional, cell-based

CC[C@@]1(O)C(=O)OCc2c1cc1n(c2=O)Cc2cc3ccccc3nc2-1 [CAMPTOTHECIN]
Activity [1]: Active | IC50 [2]: 67 nM | IC50 [3]: 700 nM | IC50 [4]: 80 nM | IC50 [5]: 30 nM | IC50 [6]: 20 nM | IC50 [7]: 30 nM

COc1cc([C@@H]2c3cc4c(cc3[C@@H](Nc3cc5c6ccccc6ccc5c5ccccc35)[C@H]3COC(=O)[C@H]23)OCO4)cc(OC)c1O
inhibition [8]: Active | inhibition [9]: Active | IC50 [10]: 100 nM | IC50 [2]: 100 nM | IC50 [3]: 10 nM | IC50 [4]: 1 nM | IC50 [5]: 0.3 nM | IC50 [6]: 0.3 nM | IC50 [7]: 0.3 nM

COc1cc([C@@H]2c3cc4c(cc3[C@@H](Nc3ccc5ccc6cccc7ccc3c5c67)[C@H]3COC(=O)[C@H]23)OCO4)cc(OC)c1OC
inhibition [8]: Active | inhibition [9]: Active | IC50 [10]: 2 nM | IC50 [2]: 0.1 nM | IC50 [5]: 0.9 nM | IC50 [7]: 0.1 nM

COc1cc([C@@H]2c3cc4c(cc3[C@@H](Nc3ccc(C(=O)c5ccc(F)cc5)cc3)[C@H]3COC(=O)[C@H]23)OCO4)cc(OC)c1OC
IC50 [10]: 4100 nM | IC50 [2]: 6200 nM | IC50 [3]: 7100 nM | IC50 [4]: 19000 nM | IC50 [5]: 17000 nM | IC50 [7]: 6700 nM

COc1cc([C@@H]2c3cc4c(cc3[C@@H](Nc3cccc5cc6ccccc6cc35)[C@H]3COC(=O)[C@H]23)OCO4)cc(OC)c1O
IC50 [2]: 8200 nM | IC50 [3]: 8600 nM | IC50 [4]: 2300 nM | IC50 [5]: 8300 nM | IC50 [6]: 18000 nM

COc1cc([C@@H]2c3cc4c(cc3[C@@H](Nc3cccc5c3Cc3ccccc3-5)[C@H]3COC(=O)[C@H]23)OCO4)cc(OC)c1O
IC50 [10]: 1 nM | IC50 [2]: 0.1 nM | IC50 [3]: 1000 nM | IC50 [4]: 10000 nM | IC50 [5]: 1000 nM | IC50 [6]: 2700 nM | IC50 [7]: 500 nM

COc1cc([C@@H]2c3cc4c(cc3[C@@H](Nc3cccc5cc6ccccc6cc35)[C@H]3COC(=O)[C@H]23)OCO4)cc(OC)c1OC
IC50 [10]: 9400 nM | IC50 [2]: 6300 nM | IC50 [3]: 6700 nM | IC50 [4]: 6700 nM | IC50 [5]: 8800 nM | IC50 [6]: 21000 nM | IC50 [7]: 7900 nM

COc1cc([C@@H]2c3cc4c(cc3[C@@H](Nc3ccc(C(=O)c5ccc(N(CCCl)CCCl)cc5)cc3)[C@H]3COC(=O)[C@H]23)OCO4)cc(OC)c1OC
IC50 [10]: 100 nM | IC50 [2]: 900 nM | IC50 [3]: 900 nM | IC50 [4]: 6300 nM | IC50 [5]: 3080 nM | IC50 [6]: 3700 nM | IC50 [7]: 2600 nM

COc1cc([C@@H]2c3cc4c(cc3[C@@H](O[C@@H]3O[C@@H]5CO[C@@H](C)O[C@H]5[C@H](O)[C@H]3O)[C@H]3COC(=O)[C@H]23)OCO4)cc(OC)c1O [ETOPOSIDE]
inhibition [11]: Active | IC50 [10]: 100 nM | IC50 [2]: 900 nM | IC50 [3]: 900 nM | IC50 [4]: 6300 nM | IC50 [5]: 3080 nM | IC50 [6]: 3700 nM | IC50 [7]: 2600 nM

O=c1[nH]cc(F)c(=O)[nH]1 [FLUOROURACIL]
IC50 [10]: 4600 nM | IC50 [2]: 3600 nM | IC50 [3]: 300 nM | IC50 [4]: 18000 nM | IC50 [5]: 2400 nM | IC50 [6]: 4800 nM | IC50 [7]: 12000 nM

COc1cc([C@@H]2c3cc4c(cc3[C@@H](Nc3cc5c6ccccc6ccc5c5ccccc35)[C@H]3COC(=O)[C@H]23)OCO4)cc(OC)c1OC
Activity [12]: Active | Activity [13]: Active | Activity [14]: Active | Activity [15]: Active | Activity [16]: Active | Activity [17]: Active | Activity [1]: Active | Activity [18]: Active | inhibition [8]: Active | inhibition [9]: Active | IC50 [10]: 100 nM | IC50 [2]: 2 nM | IC50 [3]: 2 nM | IC50 [4]: 3 nM | IC50 [5]: 40 nM | IC50 [6]: 2200 nM | IC50 [7]: 100 nM

COc1cc([C@@H]2c3cc4c(cc3[C@@H](Nc3ccc(C(=O)c5ccc(F)cc5)cc3)[C@H]3COC(=O)[C@H]23)OCO4)cc(OC)c1O
IC50 [10]: 1400 nM | IC50 [2]: 80 nM | IC50 [3]: 1300 nM | IC50 [4]: 1300 nM | IC50 [5]: 200 nM | IC50 [6]: 300 nM | IC50 [7]: 6000 nM

COc1cc([C@@H]2c3cc4c(cc3[C@@H](Nc3cccc5c3Cc3ccccc3-5)[C@H]3COC(=O)[C@H]23)OCO4)cc(OC)c1OC
IC50 [10]: 5500 nM | IC50 [2]: 90 nM | IC50 [3]: 3000 nM | IC50 [4]: 5500 nM | IC50 [5]: 7100 nM | IC50 [6]: 6600 nM | IC50 [7]: 4300 nM

COc1cc([C@@H]2c3cc4c(cc3[C@@H](Nc3ccc5ccc6cccc7ccc3c5c67)[C@H]3COC(=O)[C@H]23)OCO4)cc(OC)c1O
IC50 [10]: 2 nM | IC50 [2]: 0.1 nM | IC50 [3]: 0.2 nM | IC50 [4]: 200 nM | IC50 [5]: 1700 nM | IC50 [6]: 2200 nM
